Source: PubChem BioAssay (NCI)
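A five-concentration, 48-hour dose response in 96-well plates underlies each endpoint, interpolated linearly between surrounding concentrations. TGI is the concentration that stops growth completely.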

Columns and labels:
Test in all cases: NCI tumour cell line growth inhibition, 48 h
MOLT-4 leukemia = system: MOLT-4 leukemia
COLO 205 colon = system: COLO 205 colon
A498 renal = system: A498 renal
HOP-62 NSCLC = system: HOP-62 NSCLC
HOP-92 NSCLC = system: HOP-92 NSCLC
TK-10 renal = system: TK-10 renal
HCT-116 colon = system: HCT-116 colon
KM12 colon = system: KM12 colon
CAKI-1 renal = system: CAKI-1 renal
U251 CNS = system: U251 CNS
SK-OV-3 ovarian = system: SK-OV-3 ovarian
UACC-62 melanoma = system: UACC-62 melanoma
SN12C renal = system: SN12C renal
RPMI-8226 leukemia = system: RPMI-8226 leukemia
UACC-257 melanoma = system: UACC-257 melanoma
OVCAR-8 ovarian = system: OVCAR-8 ovarian
DU-145 prostate = system: DU-145 prostate
HCC-2998 colon = system: HCC-2998 colon
MDA-MB-231 breast = system: MDA-MB-231 breast

Row | SMILES | TGI (MOLT-4 leukemia) [µM] | TGI (COLO 205 colon) [µM] | TGI (A498 renal) [µM] | TGI (HOP-62 NSCLC) [µM] | TGI (HOP-92 NSCLC) [µM] | TGI (TK-10 renal) [µM] | TGI (HCT-116 colon) [µM] | TGI (KM12 colon) [µM] | TGI (CAKI-1 renal) [µM] | TGI (U251 CNS) [µM] | TGI (SK-OV-3 ovarian) [µM] | TGI (UACC-62 melanoma) [µM] | TGI (SN12C renal) [µM] | TGI (RPMI-8226 leukemia) [µM] | TGI (UACC-257 melanoma) [µM] | TGI (OVCAR-8 ovarian) [µM] | TGI (DU-145 prostate) [µM] | TGI (HCC-2998 colon) [µM] | TGI (MDA-MB-231 breast) [µM]
1 | COc1ccc(-c2cnoc2-c2ccc(OC)c(OC)c2)cc1OC | 35.9 | 3.86 | 21.2 | 20.5 | 21.3 | 43.2 | 12.6 | 16.9 | > 68.1 | 11.4 | 5.41 | 1.78 | 33.7 | 18.5 | > 100 | 40.9 | – | – | –
2 | Cn1c(NN)nc(-c2ccc([N+](=O)[O-])cc2)c(C#N)c1=O | – | 47.7 | – | 27.1 | – | 27.4 | 25.4 | 30.1 | 61.6 | 30.8 | 28.2 | 29 | 29 | > 100 | 29.1 | 42.3 | 30 | 26.5 | 28.4
3 | CCC(CC)C(=O)OC[n+]1ccc(-c2c(COC(=O)NC(C)C)c(COC(=O)NC(C)C)c3n2CCC3)cc1 | > 100 | > 100 | > 100 | > 100 | > 100 | – | – | – | > 100 | > 100 | > 100 | – | > 100 | > 100 | > 100 | > 100 | – | > 100 | > 100
4 | CC1C2=C(CC(C)(C)CC2=O)NC2=C1C(=O)CC(C)(C)C2 | > 100 | – | > 100 | – | > 100 | > 100 | – | > 100 | > 100 | > 100 | > 100 | > 100 | > 100 | > 100 | – | > 100 | – | > 100 | –
5 | NC(=O)c1cc(-c2ccc(-n3ccnc3)cc2)n[nH]c1=O | > 100 | > 100 | > 100 | > 100 | > 100 | > 100 | > 100 | – | > 100 | > 100 | > 100 | > 100 | > 100 | > 100 | > 100 | > 100 | > 100 | > 100 | –
6 | O=S(=O)(C(=Ic1ccccc1)S(=O)(=O)C(F)(F)C(F)(F)C(F)(F)C(F)(F)F)C(F)(F)C(F)(F)C(F)(F)C(F)(F)F | 13.8 | 21.8 | 28.6 | 30.7 | 23.1 | 29.9 | – | 41.7 | 25.9 | 29.5 | 30.4 | 33.4 | – | 86.4 | 32.8 | – | – | 40.4 | 55.4
7 | CC1(c2cccc3c2C2(O)C=CC4(CCC32)OCCO4)OCCO1 (centres undefined) | > 100 | > 100 | > 100 | > 100 | – | > 100 | > 100 | > 100 | > 100 | > 100 | > 100 | > 100 | > 100 | > 100 | > 100 | > 100 | – | > 100 | –
8 | O=C1CSC(/C(=C/c2ccccc2)c2nc3ccccc3[nH]2)=N1 | > 100 | > 100 | > 100 | > 100 | > 100 | > 100 | > 100 | > 100 | > 100 | 74.4 | 59.5 | > 100 | > 100 | – | > 100 | > 100 | – | > 100 | –
9 | COC(=O)c1ccc(Oc2nc3ccccc3nc2-c2cccs2)cc1 | > 100 | > 100 | – | 24.9 | – | 86.8 | > 100 | > 100 | > 100 | – | > 100 | > 100 | > 100 | – | > 100 | > 100 | > 100 | – | 57.8
10 | O=S1(=O)NNC(=NCc2ccc(Cl)c(Cl)c2)c2ccccc21 | 98.8 | > 100 | > 100 | – | > 100 | – | > 100 | > 100 | > 100 | > 100 | – | > 100 | > 100 | 61 | > 100 | > 100 | – | > 100 | –
11 | CCSc1c(C)c2c(n(Cc3ccc(OC)cc3)c1=O)Cc1ccccc1C2 | 14.8 | > 100 | – | > 100 | – | 73.3 | 32.5 | > 100 | > 100 | 82.4 | > 100 | > 100 | 46.5 | – | 44.3 | > 100 | > 100 | 41.6 | 94.7
12 | C[C@@]12c3c4ccc(C=O)c3Oc3ccc(C=O)c(c31)Oc1c(C=O)ccc(c12)O4 | > 100 | > 100 | > 100 | > 100 | > 100 | > 100 | > 100 | > 100 | – | > 100 | > 100 | > 100 | > 100 | > 100 | > 100 | > 100 | – | > 100 | > 100
13 | C=C(C)C#CC(O)(C(=O)OC1CCN(C)CC1)C(C)C (centres undefined) | > 100 | > 100 | – | > 100 | – | > 100 | > 100 | > 100 | > 100 | > 100 | > 100 | > 100 | > 100 | > 100 | > 100 | > 100 | > 100 | > 100 | > 100
14 | COc1cc2cc[n+](C)c(Cc3ccccc3)c2cc1OC | > 100 | > 100 | > 100 | – | > 100 | > 100 | > 100 | > 100 | – | > 100 | > 100 | > 100 | > 100 | > 100 | > 100 | > 100 | – | – | –
15 | C=CCN1C(=O)CC1N(CC=C)S(=O)(=O)c1ccc(C)cc1 (centres undefined) | > 100 | > 100 | > 100 | – | > 100 | > 100 | > 100 | > 100 | > 100 | > 100 | > 100 | > 100 | > 100 | > 100 | > 100 | > 100 | > 100 | > 100 | –
16 | CNC(C)Cc1ccccc1O (centres undefined) | > 100 | > 100 | > 100 | > 100 | > 100 | > 100 | > 100 | > 100 | > 100 | > 100 | > 100 | > 100 | > 100 | > 100 | > 100 | > 100 | – | > 100 | –
17 | COc1ccc(N(C)CN(C)c2nc(N(C)C)nc(N(C)C)n2)cc1 | > 100 | > 100 | > 100 | > 100 | > 100 | > 100 | > 100 | > 100 | > 100 | > 100 | > 100 | > 100 | > 100 | > 100 | > 100 | > 100 | – | – | –
18 | O=C(O)c1nc2cc(C(F)(F)F)ccc2nc1Nc1ccc(Cl)c(Cl)c1 | – | 30.2 | 31.1 | 27.6 | 23.1 | 37.1 | 21.1 | 26.2 | 80.3 | 33.6 | 30.7 | 25 | – | 59 | 64.5 | 26 | – | – | 48.8
19 | COC(=O)CCC1(C)C2CCC1(C)/C(=N/O)C2 (centres undefined) | > 100 | > 100 | – | > 100 | – | > 100 | > 100 | > 100 | > 100 | > 100 | > 100 | > 100 | > 100 | > 100 | > 100 | > 100 | > 100 | > 100 | > 100
20 | COC1(C(C)(C)C)C=C(C(C)(C)C)P(=O)(O)O1 (centres undefined) | – | > 100 | > 100 | > 100 | > 100 | > 100 | > 100 | > 100 | > 100 | > 100 | > 100 | > 100 | > 100 | > 100 | > 100 | > 100 | > 100 | > 100 | –
21 | CN(C)/C(N)=N/C(N)=Nc1cccc(Cl)c1 | > 100 | 49.8 | – | > 100 | – | > 100 | > 100 | > 100 | > 100 | > 100 | > 100 | > 100 | > 100 | > 100 | > 100 | > 100 | – | > 100 | > 100
22 | CN(C)CCNc1ccc2ncnc3c2c1C(=O)c1ccccc1-3 | 2.31 | 15.5 | 9.25 | 3.25 | 8.43 | 3.92 | 1.71 | 4.55 | 2.01 | 17.9 | > 72.4 | 4.92 | 13.9 | 3.83 | 11.5 | 10.5 | – | 2.92 | 4.1
23 | O=c1[nH]c(=O)n(C2CC(O)C(CO)O2)cc1OCCc1ccccc1 (centres undefined) | > 100 | > 100 | – | > 100 | – | > 100 | > 100 | > 100 | > 100 | > 100 | > 100 | > 100 | > 100 | > 100 | > 100 | > 100 | > 100 | – | > 100
